Values after ≈ are worked out from the molar mass of the structure shown.

The text below walks through data of US8945061B2, “Otic formulations, methods and devices” (Entrx LLC, priority 2012, dated 2015).

Assay [1] deals with 22 Candida spp. and 10 Aspergillus spp. The settings on record: all yeasts and moulds tested; judged from high MICs.
A further assay concerns Pseudomonas. The settings on record: cited from earlier work.
The test system of a further assay is C. albicans. The settings on record: n=5 strains, 48 hours, prominent growth reduction endpoint.
For another assay, the system named is Staphlococcus aureus. The settings on record: cited from earlier work.
For another assay, the system named is A. fumigatus. The settings on record: n=5 strains, 48 hours, prominent growth reduction endpoint.
A further assay has as its system fungus and bacteria. The settings on record: published literature; cited from earlier work.
A further assay concerns C. parapsilosis. The settings on record: n=1 strain, 48 hours, prominent growth reduction endpoint.
The next assay has as its system C. krusei. The settings on record: n=5 strains, 48 hours, prominent growth reduction endpoint.
Another assay deals with C. tropicalis. The settings on record: n=5 strains, 48 hours, prominent growth reduction endpoint.
A further assay relates to C. glabrata. The settings on record: n=5 strains, 48 hours, prominent growth reduction endpoint.
For a further assay, the system named is A. niger. The settings on record: n=5 strains, 48 hours, prominent growth reduction endpoint.
The next assay relates to C. lusitaniae. The settings on record: n=1 strain, 48 hours, prominent growth reduction endpoint.

Turning to `O=C(O)c1cn(C2CC2)c2cc(N3CCNCC3)c(F)cc2c1=O` [CIPRO, ciprofloxacin], in assay [1], the “antifungal activity on its own” value is “no antifungal activity on its own”.

For `Clc1ccccc1C(c1ccccc1)(c1ccccc1)n1ccnc1` [CTZ, clotrimazole], the antibacterial activity entry in the assay on Pseudomonas and with Staphlococcus aureus was “demonstrated antibacterial activity” each time. In addition, the MIC range entry in the assay on C. albicans was “≦0.015 mcg/ml”; against A. fumigatus it was 0.25 to 0.5 µg/mL; in the assay with C. parapsilosis, 0.06 µg/mL (≈ 0.174 µM); against C. krusei it was 0.06 to 0.125 µg/mL; against C. tropicalis, 0.06 to 2 µg/mL; in the assay with C. glabrata it was 0.25 to 1 µg/mL. Besides, the MIC range is 0.5 to 1 µg/mL with A. niger and “≦0.015 mcg/ml” with C. lusitaniae. Moreover, the “Spectrum of Efficacy” value in the assay on fungus and bacteria is “Aspergillus fiavus, Aspergilius fumigatus, Blastomyces”.

On to `C[C@@H]1[C@H](O)[C@@H](C)/C=C/C=C/CC/C=C/C=C/C=C/C=C/C(O[C@H]2O[C@H](C)[C@@H](O)[C@H](N)[C@@H]2O)CC2O[C@](O)(CC(O)C(O)CCC(O)CC(O)CC(O)CC(=O)O[C@H]1C)CC(O)C2C(=O)O` (some centres unmarked) [Nystatin, nystatin], for which the “Spectrum of Efficacy” value in the assay on fungus and bacteria is on record as “primarily fungistatic at low concentrations against biphasic”.

Regarding `Cc1cccc(N(C)C(=S)Oc2ccc3ccccc3c2)c1` [tolnaftate], the “Spectrum of Efficacy” value with fungus and bacteria was “Fungistatic for dermatophytes and Tinea Versicoior”.
